# Data from a melting point compilation (Tetko et al.; mined from patent text by program, amines drawn as free bases though some values may be those of a salt).
row,melting point [°C],SMILES
1,144 to 146,Cc1cccc(C(=O)Cc2ccnc(NC(=O)OC(C)(C)C)c2)c1
2,87 to 88,CCCN1C(=O)C2(CC(C)C)CC(c3ccc([N+](=O)[O-])cc3)(C2)C1=O
3,165 to 167,CCC1c2cccn2-c2cccc(C)c2N1S(=O)(=O)c1ccc(O)cc1 (centres undefined)
4,187,COC(=O)C1=NNC(C)=C(C(=O)OC)C1c1ccccc1 (centres undefined)
5,84.6 to 85.7,CC(C)(C)OC(=O)N1CCC(S(=O)(=O)Cl)CC1
6,241 to 250,O=C(O)c1ccc2cc(O)c(O)cc2c1
7,75 to 78,N#CC1(N)CCc2ccc3ccccc3c2C1 (centres undefined)
8,135 to 137,CC(C)(C)c1cc(-c2nn(CC3CC3)c3ncccc23)cc(C(C)(C)C)c1O
9,196 to 198,COc1cc(-n2ccc(C)n2)ccc1C(=O)N1Cc2ccc(CN(C)C)n2Cc2ccccc21
10,135 to 138,Cc1noc(NS(=O)(=O)c2cc(Cl)sc2Cl)c1Br
11,294 to 295,CC(C)c1[nH]n(-c2c(Cl)cc(Cl)cc2Cl)c2nc(Cc3ccc(C(=O)O)cc3)nc(=O)c1-2
12,240 to 242,COc1cc2c(cc1OC(=O)C=Cc1ccccc1)C1Cc3c(Cl)cc(OC)c(OC(=O)C=Cc4ccccc4)c3CN1CC2 (centres undefined)
13,193 to 195,COP(=O)(CCC(C)(C)c1cc(O)c(C(C)(C)C)cc1O)OC
14,104 to 105,N#Cc1ccccc1NC1CCN(Cc2ccccc2)CC1
15,99 to 101,COc1ccc(/C=C/c2c(Cl)cncc2Cl)cc1OC1CCCC1
16,108 to 109,CC1=C(c2ccccc2)C(=O)N(C(C)(C)c2ccccc2)CC1
17,60 to 62,CN(C)CCCn1nc2c(c1-c1ccccc1)CCc1ccccc1-2
18,101 to 102,COc1cc(CCCC2SC(=O)NC2=O)cc(OC)c1OCc1ccccc1 (centres undefined)
19,96 to 98,CC(C)(C)OC(=O)C[C@H](NC(=O)CNC(=O)CC1(c2ccc(C(N)=S)cc2)OCCO1)C(=O)N[C@@H](Cc1ccccc1)C(=O)OC(C)(C)C
20,108 to 110,O=C(Oc1ccccc1)N1CCC(c2noc3cccc(F)c23)CC1
21,161 to 169,CCCCOC(=O)C1CC2CC(CP(=O)(O)O)CCC2CN1 (centres undefined)
22,126 to 128,O=C(O)c1ncccc1Cl

row,melting point [°C],SMILES
1,132 to 135,O=C(NCC(=O)N1c2ccccc2N(Cc2ccccc2)C(=O)[C@H]2CCC[C@H]21)c1ccccc1[N+](=O)[O-] (relative stereo)
2,130 to 133,N#Cc1cccc(Oc2ncccc2O)c1
3,191 to 193,N#Cc1ccc(Cl)c(C=NO)c1
4,145,CCC1=NC2(O)c3cc(-c4ccc(C(F)(F)F)cc4)ccc3CC2S1 (centres undefined)
5,142 to 144,Cc1[nH]nc(C(C)C)c1Oc1cc(C#N)cc(C#N)c1
6,162 to 163,CC(=O)N[C@H]1CCC(=O)N2CCC[C@@H](C(=O)OC(C)(C)C)N2C1=O
7,37.5 to 39.5,CCOC(=O)c1c(C(F)(F)F)nc(C(F)(F)Cl)c(C(=O)OC)c1OCC
8,223 to 224,CCc1c(-c2ccc(OCc3ccccc3)cc2)c2cc(C(=O)O)c3cccc1n32
9,96 to 98,O=C1C=CC2=C3OC=CC=C3C=CC2O1 (centres undefined)
10,98 to 99,COC(=O)N(C(S)=NC(C)C)c1c(C(C)C)cccc1C(C)C
11,206 to 207,CC(=O)Nc1ccc(C=CC2=NNC(=O)CC2C)cc1 (centres undefined)
12,173 to 174,CC1(C)CCc2c(N3CCCC3)nc3sc4c(NCCN5CCOCC5)ncnc4c3c2C1
13,219 to 221,Cc1cc(Br)cnc1CCCCNC1=NS(=O)(=O)c2cc(S(N)(=O)=O)ccc21
14,191,O=C(CN1C(=O)c2ccccc2C1=O)Nc1ccccc1Nc1ccccc1
15,81,CCOP(=O)(C=Cc1ccc(N)cc1)OCC
16,140 to 141,COc1ccc2c(c1)c(CNc1ccccc1Oc1ccc(Cl)cc1)cn2C(C)=O
17,165 to 167,CCS(=O)(=O)N(C)[C@@H]1c2cc(OCc3ccccc3)ccc2OC(C)(C)[C@H]1O
18,107 to 115,Cc1[nH]c(C=O)c(C)c1C(=O)NCC1CCCCN1 (centres undefined)
19,74 to 76,Cc1ccc(CSCc2ccc(C)cc2)cc1
20,247 to 248,N#CCc1cc2c(-c3ccccc3)c(CC(=O)Nc3ccc(Cl)cc3C(F)(F)F)c(=O)oc2cc1Cl
21,145 to 147,CC(O)c1ccc(Nc2nccc(-c3cccnc3)n2)cc1 (centres undefined)
22,174,CCOc1ccc2c(c1)C(C)(c1ccccc1Cl)C(=O)N2S(=O)(=O)c1ccc(C(=O)O)cc1 (centres undefined)

row,melting point [°C],SMILES
1,112 to 113,CC(=O)Nc1cc(C(C)(C)C)ccc1N1CCOCC1
2,122 to 124,COCCOc1ccc(COC(=O)NS(=O)(=O)CCC(C)C)c(Oc2ncc(C(F)(F)F)cc2Cl)c1
3,118 to 119,COc1nc(C)cnc1NS(=O)(=O)c1cccnc1-c1ccc(CC(C)CO)cc1 (centres undefined)
4,243 to 245,COc1ccc(NC(=O)N(C)Cc2cccc3c2C(=O)N(C2CCC(=O)NC2=O)C3=O)cc1 (centres undefined)
5,> 260,Cc1cccnc1NC(=O)Nc1cccc2c1C1CC(=O)CCN1C2=O (centres undefined)
6,166 to 170,COc1ccc(-c2nc(C)c(C)s2)cc1
7,100 to 104,CCCCC1(c2ccc(-c3ccccc3)cc2)CC(O)=C(SCCc2ccccc2)C(=O)O1 (centres undefined)
8,259 to 260,CC(C)c1[nH]c2ccccc2c1C=C1SC(=S)N(CC(=O)O)C1=O
9,87 to 89,COC(=O)COc1ccc(O)c(C(C)(C)C)c1
10,72 to 75,CCCc1c(OCC(O)CSc2nnc(SCC(=O)O)s2)ccc(C(C)=O)c1O (centres undefined)
11,231 to 234,O=C(O)c1ccc(C(c2ccc(C(=O)O)c(C(=O)O)c2)(C(F)(F)F)C(F)(F)F)cc1C(=O)O
12,122 to 124,CCOC(=O)C(=NOCC(C)C)c1csc(N)n1
13,129,CC1CCN(c2nc(-c3ncccn3)cc(Cl)c2-c2c(F)cccc2Cl)CC1
14,129 to 130,COC(=O)CCC(NC(=O)Cc1cc(C)c(C(=O)c2ccc(Cl)cc2)n1C)C(=O)OC (centres undefined)
15,77,CCCCc1cc2cc([N+](=O)[O-])ccc2n1C
16,166,CSCc1cc(N)ccc1O
17,98 to 101,CC(C)CC1(C)C(=O)N(Cc2ccccc2)CCN1Cc1ccccc1 (centres undefined)
18,58 to 61,CCCCC1=NC2(CCCC2)C(=O)N1Cc1ccc(-c2ccccc2S(=O)(=O)Nc2onc(C)c2C)c(CC(C)C)c1
19,196 to 197,Cc1cc(C)c(Nc2nc(C)ccc2S(=O)(=O)c2cccc(O)c2)c(C)c1
20,192 to 194,CNC(=O)Nc1nnc(C(F)(F)F)s1
21,75 to 77,CCCCCCOc1nccc(C(N)=O)c1Cl
22,52 to 60,COC(=O)Cc1ccc(OCCNC(=O)C2Cc3ccccc3N2S(=O)(=O)c2ccc(-c3cccc(C(F)(F)F)c3)cc2)c(OC)c1 (centres undefined)

row,SMILES,melting point [°C]
1,CNS(=O)(=O)c1ccc([N+](=O)[O-])cc1[N+](=O)[O-],155
2,Cc1c(C2CCC(c3ccccc3)(N(C)C)CC2)[nH]c2ccc(F)cc12 (centres undefined),199 to 205
3,"COc1cc2c(cc1O)CC1c3c(cc(OC)c(O)c3-2)CCN1CC1CC1 (single isomer, unassigned; (+))",80 to 84
